Source: ChEMBL document CHEMBL5316320, “Discovery of Novel Indazole Chemotypes as Isoform-Selective JNK3 Inhibitors for the Treatment of Parkinson's Disease” (J Med Chem, 2023)

Columns and labels:
[1] = molecular target: Mitogen-activated protein kinase 10 (Homo sapiens, UniProt P53779)
[2] = molecular target: T1, Mitogen-activated protein kinase 8 (Homo sapiens, UniProt P45983)
[3] = molecular target: Voltage-gated inwardly rectifying potassium channel KCNH2 (Homo sapiens, UniProt Q12809)
[4] = molecular target: T2, Dual specificity mitogen-activated protein kinase kinase 7 (Homo sapiens, UniProt O14733); experiment: Inhibition of MKK7 (unknown origin) by kinase profiling assay
T2 sequence (O14733 whole entry): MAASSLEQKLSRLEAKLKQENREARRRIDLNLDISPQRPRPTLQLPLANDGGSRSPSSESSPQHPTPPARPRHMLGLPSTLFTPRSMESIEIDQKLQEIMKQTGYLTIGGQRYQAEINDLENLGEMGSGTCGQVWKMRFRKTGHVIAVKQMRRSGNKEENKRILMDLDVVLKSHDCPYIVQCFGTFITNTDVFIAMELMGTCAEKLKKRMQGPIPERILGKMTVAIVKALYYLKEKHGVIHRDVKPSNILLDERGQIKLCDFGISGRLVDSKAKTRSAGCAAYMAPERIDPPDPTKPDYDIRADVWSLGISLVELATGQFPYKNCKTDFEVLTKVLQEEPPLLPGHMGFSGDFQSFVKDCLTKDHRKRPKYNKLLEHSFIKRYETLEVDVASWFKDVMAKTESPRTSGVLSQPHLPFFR

[5] = molecular target: T1, Mitogen-activated protein kinase 8; experiment: Inhibition of JNK1 (unknown origin) by kinase profiling assay
[6] = molecular target: T3, Serine/threonine-protein kinase D3 (Homo sapiens, UniProt O94806); experiment: Inhibition of PKD3 (unknown origin) by kinase profiling assay
T3 sequence (O94806 whole entry): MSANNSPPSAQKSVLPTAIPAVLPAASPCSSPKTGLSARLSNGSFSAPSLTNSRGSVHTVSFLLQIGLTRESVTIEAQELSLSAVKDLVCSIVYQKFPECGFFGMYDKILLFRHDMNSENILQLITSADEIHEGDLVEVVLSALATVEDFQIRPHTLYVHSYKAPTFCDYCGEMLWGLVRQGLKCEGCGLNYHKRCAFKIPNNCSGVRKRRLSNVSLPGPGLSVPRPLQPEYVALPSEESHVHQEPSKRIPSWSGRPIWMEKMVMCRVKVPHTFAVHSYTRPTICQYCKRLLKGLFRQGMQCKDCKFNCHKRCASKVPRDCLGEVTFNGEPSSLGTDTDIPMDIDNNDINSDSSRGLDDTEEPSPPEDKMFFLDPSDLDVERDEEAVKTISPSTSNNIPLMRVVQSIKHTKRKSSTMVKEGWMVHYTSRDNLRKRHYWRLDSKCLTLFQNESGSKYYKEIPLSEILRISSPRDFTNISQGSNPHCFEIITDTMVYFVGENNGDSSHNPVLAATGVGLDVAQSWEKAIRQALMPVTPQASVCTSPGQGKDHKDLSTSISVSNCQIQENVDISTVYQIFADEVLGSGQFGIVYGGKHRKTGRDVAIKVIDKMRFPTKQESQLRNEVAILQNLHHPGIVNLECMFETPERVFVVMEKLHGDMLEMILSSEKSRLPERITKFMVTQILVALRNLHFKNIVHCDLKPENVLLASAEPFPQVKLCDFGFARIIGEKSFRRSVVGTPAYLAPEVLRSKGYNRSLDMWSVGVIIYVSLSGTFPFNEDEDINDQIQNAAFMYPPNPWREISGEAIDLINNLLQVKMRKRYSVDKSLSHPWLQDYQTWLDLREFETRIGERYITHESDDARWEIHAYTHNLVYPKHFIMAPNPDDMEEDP

[7] = molecular target: TRAF2 and NCK-interacting protein kinase (Homo sapiens, UniProt Q9UKE5); experiment: Inhibition of TNIK (unknown origin) by kinase profiling assay
[8] = molecular target: Cyclin-dependent kinase-like 3 (Homo sapiens, UniProt Q8IVW4); experiment: Inhibition of CDKL3 (unknown origin) by kinase profiling assay
Cyclin-dependent kinase-like 3, sequence (Q8IVW4 whole entry): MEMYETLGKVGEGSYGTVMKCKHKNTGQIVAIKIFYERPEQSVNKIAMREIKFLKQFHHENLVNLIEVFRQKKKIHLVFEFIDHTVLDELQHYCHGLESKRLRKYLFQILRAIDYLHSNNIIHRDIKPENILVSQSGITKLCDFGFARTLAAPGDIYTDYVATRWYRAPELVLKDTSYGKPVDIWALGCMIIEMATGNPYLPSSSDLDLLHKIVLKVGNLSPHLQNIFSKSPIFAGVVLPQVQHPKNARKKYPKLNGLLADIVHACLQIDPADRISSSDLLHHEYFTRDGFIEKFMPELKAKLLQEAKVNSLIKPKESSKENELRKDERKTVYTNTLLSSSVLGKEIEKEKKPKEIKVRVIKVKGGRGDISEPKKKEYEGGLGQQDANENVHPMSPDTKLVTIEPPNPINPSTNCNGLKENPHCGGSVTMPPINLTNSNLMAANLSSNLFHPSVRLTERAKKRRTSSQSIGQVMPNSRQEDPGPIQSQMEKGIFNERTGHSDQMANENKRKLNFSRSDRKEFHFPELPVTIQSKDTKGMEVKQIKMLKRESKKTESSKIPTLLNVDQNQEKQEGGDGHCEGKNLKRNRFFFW

[9] = molecular target: Mitogen-activated protein kinase 9 (Homo sapiens, UniProt P45984); experiment: Inhibition of JNK2 (unknown origin) by kinase profiling assay
Mitogen-activated protein kinase 9, sequence (P45984 whole entry): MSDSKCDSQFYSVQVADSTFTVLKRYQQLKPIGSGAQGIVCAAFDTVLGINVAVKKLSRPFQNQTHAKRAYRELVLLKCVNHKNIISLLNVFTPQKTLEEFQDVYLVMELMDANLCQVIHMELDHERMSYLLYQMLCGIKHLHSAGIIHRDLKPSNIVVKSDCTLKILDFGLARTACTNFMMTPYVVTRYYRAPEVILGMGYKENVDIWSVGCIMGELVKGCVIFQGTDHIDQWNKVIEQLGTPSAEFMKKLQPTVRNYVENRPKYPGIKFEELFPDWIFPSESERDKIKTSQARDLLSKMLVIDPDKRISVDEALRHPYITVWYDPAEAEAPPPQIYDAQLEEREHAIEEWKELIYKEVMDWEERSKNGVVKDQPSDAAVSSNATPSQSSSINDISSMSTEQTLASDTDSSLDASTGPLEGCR

[10] = molecular target: Vascular endothelial growth factor receptor 3 (Homo sapiens, UniProt P35916); experiment: Inhibition of FLT4 (unknown origin) by kinase profiling assay
Vascular endothelial growth factor receptor 3, sequence (P35916 whole entry): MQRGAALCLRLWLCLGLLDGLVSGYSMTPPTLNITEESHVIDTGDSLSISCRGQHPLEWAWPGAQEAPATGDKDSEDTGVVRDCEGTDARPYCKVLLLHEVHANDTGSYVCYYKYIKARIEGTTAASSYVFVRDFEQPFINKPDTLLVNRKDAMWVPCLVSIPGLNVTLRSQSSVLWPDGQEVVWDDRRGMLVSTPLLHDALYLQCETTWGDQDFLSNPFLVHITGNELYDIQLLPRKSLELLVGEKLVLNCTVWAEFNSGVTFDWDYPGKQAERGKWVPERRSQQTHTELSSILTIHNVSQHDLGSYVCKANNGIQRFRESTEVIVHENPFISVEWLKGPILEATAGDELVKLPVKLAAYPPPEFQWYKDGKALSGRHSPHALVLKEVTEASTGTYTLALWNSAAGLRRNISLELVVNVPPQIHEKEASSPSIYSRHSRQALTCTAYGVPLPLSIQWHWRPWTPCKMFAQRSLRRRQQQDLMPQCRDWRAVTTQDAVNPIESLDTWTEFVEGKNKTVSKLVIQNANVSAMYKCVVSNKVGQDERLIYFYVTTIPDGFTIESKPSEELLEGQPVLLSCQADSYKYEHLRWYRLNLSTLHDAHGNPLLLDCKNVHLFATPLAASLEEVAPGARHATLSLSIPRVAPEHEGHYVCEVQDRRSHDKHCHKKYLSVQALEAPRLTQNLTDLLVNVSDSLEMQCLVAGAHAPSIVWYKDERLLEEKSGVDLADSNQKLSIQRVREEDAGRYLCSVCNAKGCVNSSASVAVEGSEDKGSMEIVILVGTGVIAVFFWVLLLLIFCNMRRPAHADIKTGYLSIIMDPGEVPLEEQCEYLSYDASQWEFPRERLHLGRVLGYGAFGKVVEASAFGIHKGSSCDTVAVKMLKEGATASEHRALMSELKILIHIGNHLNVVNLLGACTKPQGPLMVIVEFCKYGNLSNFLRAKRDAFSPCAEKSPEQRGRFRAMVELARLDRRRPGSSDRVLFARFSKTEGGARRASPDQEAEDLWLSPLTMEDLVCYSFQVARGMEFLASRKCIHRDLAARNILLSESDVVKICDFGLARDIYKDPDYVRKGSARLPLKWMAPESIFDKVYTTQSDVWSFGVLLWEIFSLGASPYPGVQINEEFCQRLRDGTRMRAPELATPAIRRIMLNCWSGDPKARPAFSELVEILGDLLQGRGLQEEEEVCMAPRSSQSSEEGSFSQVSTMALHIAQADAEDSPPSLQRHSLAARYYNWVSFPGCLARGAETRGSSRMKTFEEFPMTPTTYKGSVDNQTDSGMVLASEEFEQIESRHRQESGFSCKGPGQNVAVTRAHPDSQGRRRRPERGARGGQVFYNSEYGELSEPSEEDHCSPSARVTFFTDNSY

[11] = molecular target: T4, Dual specificity mitogen-activated protein kinase kinase 4 (Homo sapiens, UniProt P45985); experiment: Inhibition of MKK4 (unknown origin) by kinase profiling assay
T4 sequence (P45985 whole entry): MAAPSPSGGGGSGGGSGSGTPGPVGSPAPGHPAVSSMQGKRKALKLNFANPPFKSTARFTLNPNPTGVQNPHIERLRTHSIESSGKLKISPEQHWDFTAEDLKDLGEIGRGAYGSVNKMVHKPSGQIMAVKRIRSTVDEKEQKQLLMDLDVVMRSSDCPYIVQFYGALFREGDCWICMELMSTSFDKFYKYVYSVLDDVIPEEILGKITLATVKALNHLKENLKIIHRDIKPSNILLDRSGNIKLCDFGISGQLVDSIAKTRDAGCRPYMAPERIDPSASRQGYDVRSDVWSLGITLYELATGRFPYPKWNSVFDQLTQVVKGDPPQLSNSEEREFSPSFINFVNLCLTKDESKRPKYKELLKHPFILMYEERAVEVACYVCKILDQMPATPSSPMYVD

T1 sequence (P45983 whole entry): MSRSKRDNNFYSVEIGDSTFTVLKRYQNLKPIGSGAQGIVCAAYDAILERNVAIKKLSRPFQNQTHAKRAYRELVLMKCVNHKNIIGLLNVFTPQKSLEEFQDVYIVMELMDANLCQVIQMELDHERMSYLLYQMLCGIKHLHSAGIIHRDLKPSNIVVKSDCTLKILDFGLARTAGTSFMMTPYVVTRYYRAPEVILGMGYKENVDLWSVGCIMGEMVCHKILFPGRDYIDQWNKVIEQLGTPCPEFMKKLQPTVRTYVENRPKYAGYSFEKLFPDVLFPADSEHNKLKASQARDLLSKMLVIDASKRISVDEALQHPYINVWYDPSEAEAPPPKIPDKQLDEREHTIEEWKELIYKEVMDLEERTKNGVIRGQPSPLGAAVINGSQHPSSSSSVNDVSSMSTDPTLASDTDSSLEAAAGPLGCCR
Mitogen-activated protein kinase 10, sequence (P53779 whole entry): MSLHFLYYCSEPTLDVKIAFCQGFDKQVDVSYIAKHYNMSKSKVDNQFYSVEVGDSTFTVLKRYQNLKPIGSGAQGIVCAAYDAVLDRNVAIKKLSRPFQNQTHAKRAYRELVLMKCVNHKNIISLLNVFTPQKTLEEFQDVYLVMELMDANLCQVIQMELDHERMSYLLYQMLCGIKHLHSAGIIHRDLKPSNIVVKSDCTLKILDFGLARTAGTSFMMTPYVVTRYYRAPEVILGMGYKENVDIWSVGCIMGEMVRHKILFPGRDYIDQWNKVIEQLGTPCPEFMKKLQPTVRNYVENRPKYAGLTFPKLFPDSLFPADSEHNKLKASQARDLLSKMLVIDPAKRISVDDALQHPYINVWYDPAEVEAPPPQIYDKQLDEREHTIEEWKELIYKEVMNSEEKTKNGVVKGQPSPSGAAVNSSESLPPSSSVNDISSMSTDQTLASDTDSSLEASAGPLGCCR
Voltage-gated inwardly rectifying potassium channel KCNH2, sequence (Q12809 whole entry): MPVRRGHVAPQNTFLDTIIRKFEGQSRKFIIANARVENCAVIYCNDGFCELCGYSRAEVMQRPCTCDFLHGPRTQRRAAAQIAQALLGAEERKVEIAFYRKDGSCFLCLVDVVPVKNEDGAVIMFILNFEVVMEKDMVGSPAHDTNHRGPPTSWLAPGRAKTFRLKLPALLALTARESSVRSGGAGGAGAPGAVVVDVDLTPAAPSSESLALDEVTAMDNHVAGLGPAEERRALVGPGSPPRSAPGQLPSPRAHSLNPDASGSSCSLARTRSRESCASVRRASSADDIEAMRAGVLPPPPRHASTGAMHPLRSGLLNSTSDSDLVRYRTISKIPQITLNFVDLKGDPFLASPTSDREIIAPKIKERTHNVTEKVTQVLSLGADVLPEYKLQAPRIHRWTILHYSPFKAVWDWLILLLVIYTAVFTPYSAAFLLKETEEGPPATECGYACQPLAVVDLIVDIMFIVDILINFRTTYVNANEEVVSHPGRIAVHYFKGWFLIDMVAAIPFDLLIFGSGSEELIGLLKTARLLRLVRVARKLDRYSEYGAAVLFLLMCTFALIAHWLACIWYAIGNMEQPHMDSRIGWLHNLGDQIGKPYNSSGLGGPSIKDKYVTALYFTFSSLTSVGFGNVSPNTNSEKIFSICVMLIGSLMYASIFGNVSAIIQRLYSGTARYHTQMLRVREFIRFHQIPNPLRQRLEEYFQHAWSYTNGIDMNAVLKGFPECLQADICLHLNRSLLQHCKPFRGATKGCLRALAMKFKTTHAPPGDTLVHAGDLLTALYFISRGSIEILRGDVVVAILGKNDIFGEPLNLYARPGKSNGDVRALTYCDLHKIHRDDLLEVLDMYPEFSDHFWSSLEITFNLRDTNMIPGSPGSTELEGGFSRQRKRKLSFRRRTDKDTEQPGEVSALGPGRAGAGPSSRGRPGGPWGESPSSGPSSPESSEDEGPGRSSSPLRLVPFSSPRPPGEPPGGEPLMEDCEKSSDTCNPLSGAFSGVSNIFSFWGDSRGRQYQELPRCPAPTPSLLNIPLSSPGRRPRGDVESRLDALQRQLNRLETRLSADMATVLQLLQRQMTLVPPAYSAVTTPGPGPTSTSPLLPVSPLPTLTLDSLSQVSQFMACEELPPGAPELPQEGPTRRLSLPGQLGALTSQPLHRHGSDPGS

| SMILES | IC50 [1] [µM] | IC50 [2] [µM] | also measured |
| --- | --- | --- | --- |
| Cn1nc(NCc2cccc(C(=O)N3CCN(C(=O)c4ccc(Cl)cc4Cl)CC3)c2)c2ccccc21 | > 10 | > 10 | – |
| O=C(Nc1ccccc1)c1ccc(CNc2n[nH]c3ccccc23)cc1 | > 10 | > 10 | – |
| O=C(c1ccc(CNc2n[nH]c3ccccc23)cc1)N1CCN(C(=O)c2ccc(Br)cc2Br)CC1 | 0.248 | 8.85 | – |
| O=C(c1ccc(CNc2n[nH]c3ccccc23)cc1)N1CCN(C(=O)c2cc(C(F)(F)F)ccc2Cl)CC1 | 0.282 | 9.87 | – |
| COc1ccc(NC(=O)c2ccc(CNc3n[nH]c4ccccc34)cc2)cc1 | > 10 | > 10 | – |
| O=C(c1cccc(CNc2n[nH]c3c(Cl)cc([N+](=O)[O-])cc23)c1)N1CCN(C(=O)c2ccc(Cl)cc2Cl)CC1 | > 10 | > 10 | – |
| COc1ccc(C(=O)N2CCN(C(=O)c3ccc(CNc4n[nH]c5ccccc45)cc3)CC2)c(Cl)c1 | – | > 10 | – |
| O=C(Nc1cc(C(F)(F)F)cc(C(F)(F)F)c1)N1CCN(C(=O)c2ccc(CNc3n[nH]c4ccccc34)cc2)CC1 | 8.03 | > 10 | – |
| Cc1cc(NC(=O)c2ccc(CNc3n[nH]c4ccccc34)cc2)ccc1Cl | > 10 | > 10 | – |
| O=C(Nc1ccc(Cl)cc1)c1ccc(CNc2n[nH]c3ccccc23)cc1 | > 10 | > 10 | – |
| O=C(c1cccc(CNc2n[nH]c3ccccc23)c1)N1CCN(C(=O)c2cc(C(F)(F)F)ccc2F)CC1 | 4.46 | – | – |
| Cc1cccc(Cl)c1C(=O)N1CCN(C(=O)c2ccc(CNc3n[nH]c4ccccc34)cc2)CC1 | – | > 10 | – |
| O=C(c1ccc(CNc2n[nH]c3ccccc23)cc1)N1CCN(C(=O)c2ccc(F)cc2Cl)CC1 | 0.647 | 9.07 | – |
| O=C(NCCc1ccccc1)c1ccc(CNc2n[nH]c3ccccc23)cc1 | > 10 | > 10 | – |
| O=C(c1ccc(CNc2n[nH]c3ccccc23)cc1)N1CCN(C(=O)c2c(Cl)cccc2Cl)CC1 | 0.279 | – | – |
| O=C(c1ccc(CNc2n[nH]c3ccccc23)cc1)N1CCN(C(=O)c2cccc(F)c2Cl)CC1 | 0.384 | 8.91 | – |
| O=C(c1cccc(CNc2n[nH]c3cccc(Cl)c23)c1)N1CCN(C(=O)c2ccc(Cl)cc2Cl)CC1 | – | > 10 | IC50 [3]: > 30 µM; IC50 [4]: > 10 µM; IC50 [5]: > 10 µM; IC50 [6]: 0.624 µM; IC50 [7]: 0.367 µM; IC50 [8]: 0.669 µM; IC50 [9]: 9.27 µM; IC50 [10]: 0.423 µM; IC50 [11]: > 10 µM |
| Cc1ccc(Cl)c(C(=O)N2CCN(C(=O)c3ccc(CNc4n[nH]c5ccccc45)cc3)CC2)c1 | 0.588 | > 10 | – |
| O=C(c1cccc(CNc2n[nH]c3cc(Cl)ccc23)c1)N1CCN(C(=O)c2ccc(Cl)cc2Cl)CC1 | 0.239 | – | – |
| O=C(NN1CCCCC1)c1ccc(CNc2n[nH]c3ccccc23)cc1 | – | 9.06 | – |
| Cc1cccc2c(NCc3cccc(C(=O)N4CCN(C(=O)c5ccc(Cl)cc5Cl)CC4)c3)n[nH]c12 | > 10 | > 10 | – |

The next lines start with results.

| IC50 [1] [µM] | IC50 [2] [µM] | SMILES | also measured |
| --- | --- | --- | --- |
| 0.619 | 7.79 | O=C(Nc1ccccc1Cl)N1CCN(C(=O)c2ccc(CNc3n[nH]c4ccccc34)cc2)CC1 | – |
| 0.205 | 7.61 | O=C(c1ccc(CNc2n[nH]c3ccccc23)cc1)N1CCN(C(=O)c2cc(Cl)ccc2Cl)CC1 | – |
| 0.325 | 7.68 | O=C(c1ccc(CNc2n[nH]c3ccccc23)cc1)N1CCN(C(=O)c2ccc(OC(F)(F)F)cc2)CC1 | – |
| 4.03 | 7.59 | O=C(c1cccc(CNc2n[nH]c3ccccc23)c1)N1CCN(C(=O)c2ccc(Cl)cc2Cl)CC1 | – |
| 0.399 | 7.69 | O=C(c1ccc(CNc2n[nH]c3ccccc23)cc1)N1CCN(C(=O)c2ccccc2I)CC1 | – |
| 0.394 | 8.28 | O=C(c1ccc(CNc2n[nH]c3ccccc23)cc1)N1CCN(C(=O)c2ccccc2OC(F)(F)F)CC1 | – |
| 0.189 | 8 | O=C(c1cccc(CNc2n[nH]c3cccc(F)c23)c1)N1CCN(C(=O)c2ccc(Cl)cc2Cl)CC1 | – |
| 4.3 | 7.82 | O=C(c1cccc(CNc2n[nH]c3ccccc23)c1)N1CCN(C(=O)c2c(F)cccc2Cl)CC1 | – |
| 0.253 | 7.66 | O=C(c1ccc(CNc2n[nH]c3ccccc23)cc1)N1CCN(C(=O)c2c(Cl)cccc2C(F)(F)F)CC1 | – |
| – | 0.0423 | O=C1c2ccccc2C2=NNC3=CC=CC1C32 (stereo unspecified) | – |
| 0.305 | 8.82 | O=C(c1ccc(Cl)cc1)N1CCN(C(=O)c2ccc(CNc3n[nH]c4ccccc34)cc2)CC1 | – |
| 7.51 | 8.07 | O=C(c1ccc(CNc2n[nH]c3ccccc23)cc1)N1CCCC1 | – |
| 0.927 | 7.8 | O=C(c1ccc(CNc2n[nH]c3ccccc23)cc1)N1CCN(C(=O)c2cccc(C(F)(F)F)c2)CC1 | – |
| 0.615 | 7.7 | COc1ccc(C(=O)N2CCN(C(=O)c3ccc(CNc4n[nH]c5ccccc45)cc3)CC2)cc1 | – |
